Data reported in patent publication US20200270309A1, “MALEIMIDE GROUP-MODIFIED ANGIOGENESIS INHIBITOR HM-1 AND USE THEREOF” (NANJING ANJI BIOLOGICAL TECHNOLOGY CO., LTD, priority 2017, published 2020).
Marks after values point to notes of the source that are not given here. One block for each molecule: values may come before it. Peptide text beside a SMILES is read from it. * marks the point of attachment. X9 = O=C1C=CC(=O)N1CCOCCOCCOCCOCCOCCCCCCCC(=O)*; X48 = O=C1C=CC(=O)N1CCCCCCCCCCCC(=O)*

Legend:
[1] = test system: carrageenan-induced toe swelling; test: Carrageenan-induced toe swelling in rats; assay type: in vivo; settings: SD rats, Dex 10 mg/kg once a day for 3 d
Method: The rats were injected once a day, and the model group was given the same volume of normal saline for 3 d and fed normally. […] The foot swelling degree was calculated according to the following formula: foot swelling degree (mL)=foot volume after inflammation-foot volume before inflammation. The number of milliliters of overflow liquid was recorded (method: a ballpoint pen is used to circle the protruding point of the right joint as a measurement mark, and the right hind feet of each rat are sequentially placed into the volume measurer, so that the hind limbs are exposed outside the barrel, and the immersion depth is at the coincidence of the circle and the liquid level. After the foot enters the liquid, the liquid level rises, and the volume of overflow liquid is the volume of the right hind foot of the rat, and the normal volume of the right hind foot of each rat is measured in sequence).

[2] = test system: IL-1β production by mouse peritoneal macrophages; test: IL-1β production by mouse peritoneal macrophages (ELISA); assay type: cell-based; settings: dose 20 μM
Method: Mice were injected intraperitoneally with 1 mL of broth culture medium (containing 6% of starch). Three days later, mice peritoneal macrophages were taken aseptically and washed twice with 1640 culture medium, and the cell concentration was adjusted to 2×10^6 cells/mL. The solutions were injected into 24-well culture plates at 1 mL per well. The cells were incubated in a cell incubator for 3 h and vibrated once every 30 min to make the cells fully adhere to the wall. Then, the cells were washed twice with a culture solution to remove non-adhered cells. PBS was added to the blank group, positive drug Dex was added to the positive group, no drug was added to the model group, and polypeptides X1-X90 with low, medium and high concentrations were added to the test groups; and the cells were continuously cultured for 48 h after administration, and then centrifuged at 1000 r/min for 15 min. The supernatant was collected as a sample to be tested for IL-1β activity.

splenic lymphocytes = test: Proliferation of splenic lymphocytes in mice (ConA, MTT); assay type: cell-based; settings: dose 20 μM (Dex group), mouse splenic lymphocytes, 48 h
Method: Spleens of mice were taken out under aseptic conditions, washed with blank 1640 culture medium 3 times, ground with a 5 mL syringe core, filtered with a 200-mesh sieve, made into a single cell suspension. The suspension was centrifuged (1000 rpm×5 min), and supernatant was removed. Red blood cells were lysed by Tris-NH4Cl, and placed in ice water bath for 4 min and centrifuged (1000 rpm×5 min). The supernatant was removed, and the cells were washed twice with sterile PBS. Finally, RPMI 1640 culture solution (5 mL) containing 10% calf serum was added to suspend the cells. The cells were counted and the cell concentration was adjusted to 5×10^6 cells/mL, and the cells were cultured in a 96-well culture plate.
Blank control group, concanavalin A (ConA) group and dexamethasone (Dex) group were set in the experiment, and polypeptide X1-X90 groups were set as test groups. After 100 μL of splenic lymphocytes suspension per well was added into each group, 100 μL of blank 1640 culture solution was added into the blank control group, ConA was added into the ConA group, Dex was added into the Dex group, and ConA was added into the test groups on the basis of adding different concentrations of polypeptides X1-X90. The cells were static cultured at 37° C. in a cell incubator for 48 h. After the cultivation was completed, 20 μL of MTT was added to each well, and the cultivation was continued for 4 h. Finally, all the solutions in each well were discarded. 100 μL DMSO was added to each well and shaken, and the OD value at 570 nm was detected with a microplate reader. Five parallel experiments were set in each well.

[3] = test system: Head and neck cancers tumor cell line; test: MTT proliferation inhibition, head and neck cancers; assay type: cell-based, human; settings: 48 h, mean ±SD
[4] = test system: Pancreatic cancer tumor cell line; test: MTT proliferation inhibition, pancreatic cancer; assay type: cell-based, human; settings: 48 h, mean ±SD
[5] = test system: Thyroid cancer tumor cell line; test: MTT proliferation inhibition, thyroid cancer; assay type: cell-based, human; settings: 48 h, mean ±SD
Brain tumor cell line = test: MTT proliferation inhibition, brain tumor; assay type: cell-based, human; settings: 48 h, mean ±SD
[6] = test system: Esophageal cancer tumor cell line; test: MTT proliferation inhibition, esophageal cancer; assay type: cell-based, human; settings: 48 h, mean ±SD
[7] = test system: human retinal capillary endothelial cells (HRCECs); test: MTT proliferation inhibition on HRCECs; assay type: cell-based; settings: 48 h, dose 0.5 μM (positive control)
Method: An MTT method was used to detect the inhibitory activity of the angiogenesis inhibitor polypeptide on proliferation of HRCECs. HRCECs were digested and collected with trypsin after being cultured in an incubator at 37° C. with 5% CO2 to a density of 90% or more. The cells were resuspended with a culture solution and counted under a microscope, the cell concentration was adjusted to 3.0×10^4 cells/mL, and the cell suspension was inoculated into a 96-well plate at 100 μL/well, and cultured overnight in an incubator at 37° C. with 5% CO2. After the cells were completely adhered to the wall, cells with the addition of the angiogenesis inhibitor polypeptide were used as administration groups, cells with the addition of Avastin were used as a positive control group, and cells with the addition of culture solution without any drugs were used as a blank control group. The cells were diluted to respective predetermined concentrations with the culture solution. The diluent were added into 96-well plates respectively at 100 μL per well, and the cells were cultured at 37° C. for 48 h in an incubator with 5% CO2. 20 μL of 5 mg/mL MTT was added into each well of the 96-well plate, and the cultivation was continued for 4 h. The culture medium was removed, and 100 μL of DMSO was added to each well for dissolution. The absorbance was measured at a detection wavelength of 570 nm and a reference wavelength of 630 nm using a microplate reader, and the PIR was calculated by the formula as follows:
PIR (%)=1−administration group/negative group
The experiment was repeated independently three times. The results were expressed as mean±SD, and statistical T test was conducted. *P<0.05 indicates significant difference, and **P<0.01 indicates extremely significant difference.

HUVECs = test: Transwell migration inhibition on HUVECs; assay type: cell-based, human; settings: dose 0.2 μM
[8] = test system: xylene-induced ear swelling; test: Xylene-induced mouse ear swelling; assay type: in vivo; settings: Kunming mice, positive control, dose 200 mg/kg, once a day for 5 days
Method: Kunming mice were taken, a normal saline group was taken as a blank control group, an aspirin group (200 mg/kg) was taken as a positive control group, and X1-X90 administration groups were taken as test groups. The mice were injected once a day for 5 consecutive days. The blank control group was given an equal volume of normal saline. One hour after the last administration, 0.05 mL of xylene was applied to both sides of the right ear of each mouse to cause inflammation, while no drug was applied to the left ear as a normal ear. Two hours later, the mice were put to death by dislocation. Two ears were cut along the auricle. Ear pieces were taken with a puncher and weighed, and the swelling degree and the swelling rate were calculated. Swelling degree=right ear piece weight-left ear piece weight, swelling rate=(swelling degree/left ear piece weight)*100%. Statistical t-test was conducted on the experimental results. *P<0.05 indicates significant difference, and **P<0.01 indicates extremely significant difference.

[9] = Half-lives and pharmacokinetic parameters of polypeptides vs HM-1; settings: in vivo; for half-life: T1/2β (half-life)

Molecule: C[C@@H]1C[C@H]2[C@@H]3CCC4=CC(=O)C=C[C@]4(C)[C@@]3(F)[C@@H](O)C[C@]2(C)[C@@]1(O)C(=O)CO [Dex]
Swelling degree 1 h ([1]; 1 h after carrageenan): 0.22 ± 0.10 mg
Swelling degree 3 h ([1]; 3 h after carrageenan): 0.24 ± 0.11 mg
Swelling degree 5 h ([1]; 5 h after carrageenan): 0.29 ± 0.11 mg
Swelling degree 7 h ([1]; 7 h after carrageenan): 0.23 ± 0.08 mg
Inhibition rate ([2]; IL-1β production, vs model group): 62.95%
IL-1β ([2]; mouse peritoneal macrophages, 48 h, ELISA): 352.06 ± 17.29 pg/mL
A570 nm/A630 nm (splenic lymphocytes): 0.3918 ± 0.1127
Inhibition rate (%) (splenic lymphocytes): 52.65%

Molecule: CC(=O)O[C@@]12CO[C@@H]1C[C@H](O)[C@@]1(C)C(=O)[C@H](O)C3=C(C)[C@@H](OC(=O)[C@H](O)[C@@H](NC(=O)OC(C)(C)C)c4ccccc4)C[C@@](O)([C@@H](OC(=O)c4ccccc4)[C@H]21)C3(C)C [Docetaxel]
PIR (%) [3]: 55.66%
PIR (%) [4]: 45.92%
PIR (%) [5]: 73.75%
PIR (%) (Brain tumor cell line): 70.69%
PIR (%) [6]: 53.43%

Molecule: Avastin: positive control [reference compound]
Inhibition rate (%) [7]: 67.30%**
A570 nm-A630 nm ([7]; mean±SD): 0.4325 ± 0.01108
Inhibition rate (%) (HUVECs; HUVEC migration vs blank control): 60.92%
Cell migration number (Mean ± SD) (HUVECs; HUVECs, transwell, 24 h): 418.92 ± 61.42
Cell migration number (Mean ± SD) (HUVECs; 24 h): 418.92 ± 61.42
Inhibition rate (migration) (HUVECs; 24 h): 60.92%

Molecule: CC(=O)Oc1ccccc1C(=O)O [Aspirin]
Swelling degree (mg) [8]: 3.08 ± 0.31** mg
inhibition at 200 mg/kg ([8]; Mus musculus, 120 h, read-out: Inhibition rate (%)): 51%

AUC(0-inf) [9]: 25100 ± 8260 ng·h/mL
MRT inf [9]: 44.9 ± 11.6 h
clearance [9]: 0.665 mL/min/kg
half-life [9]: 31.08 ± 0.29 h
Molecule: C[C@H](NC(=O)CNC(=O)[C@H](CCCNC(=N)N)NC(=O)CCCCCCCCCCCN1C(=O)C=CC1=O)C(=O)N[C@@H](CC(=O)O)C(=O)N[C@@H](CCCNC(=N)N)C(=O)N[C@@H](C)C(=O)NCC(=O)NCC(=O)NCC(=O)NCC(=O)N[C@@H](CCCNC(=N)N)C(=O)NCC(=O)N[C@@H](CC(=O)O)C(=O)O [X11] (X48-RGADRAGGGGRGD-OH)

AUC(0-inf) [9]: 29200 ± 7640 ng·h/mL
MRT inf [9]: 52.3 ± 11.7 h
clearance [9]: 0.57 mL/min/kg
half-life [9]: 36.23 ± 0.28 h
Molecule: C[C@H](NC(=O)CNC(=O)[C@H](CCCNC(=N)N)NC(=O)CCCCCCCOCCOCCOCCOCCOCCN1C(=O)C=CC1=O)C(=O)N[C@@H](CC(=O)O)C(=O)N[C@@H](CCCNC(=N)N)C(=O)N[C@@H](C)C(=O)NCC(=O)NCC(=O)NCC(=O)NCC(=O)N[C@@H](CCCNC(=N)N)C(=O)NCC(=O)N[C@@H](CC(=O)O)C(=O)O [X83] (X9-RGADRAGGGGRGD-OH)
